Data: PubChem BioAssay (NCI)
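Where inhibition never reached the appropriate level, the endpoint shown equals the highest concentration tested. Otherwise, values were interpolated linearly from a five-concentration, 48-hour dose response in 96-well plates. At the TGI there is no net growth.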

Key:
Assay in all cases: NCI anticancer screen, dose series, 48 h
786-0 renal = test system: 786-0 renal
CAKI-1 renal = test system: CAKI-1 renal
CCRF-CEM leukemia = test system: CCRF-CEM leukemia
COLO 205 colon = test system: COLO 205 colon
DU-145 prostate = test system: DU-145 prostate
HCT-15 colon = test system: HCT-15 colon
HS 578T breast = test system: HS 578T breast
K-562 leukemia = test system: K-562 leukemia
SN12C renal = test system: SN12C renal
SNB-75 CNS = test system: SNB-75 CNS

Row | Compound | TGI (786-0 renal) [µM] | TGI (CAKI-1 renal) [µM] | TGI (CCRF-CEM leukemia) [µM] | TGI (COLO 205 colon) [µM] | TGI (DU-145 prostate) [µM] | TGI (HCT-15 colon) [µM] | TGI (HS 578T breast) [µM] | TGI (K-562 leukemia) [µM] | TGI (SN12C renal) [µM] | TGI (SNB-75 CNS) [µM]
1 | NC(=O)C1CCCN1C(=O)N(CCCl)N=O (stereo not given) | > 100 | > 100 | > 100 | > 100 | > 100 | > 100 | > 100 | > 100 | > 100 | 72.8
2 | CNc1nc2c(C)ccc3[nH]c(N(C)C)nc3c-2n1 | > 100 | > 100 | > 100 | > 100 | > 100 | > 100 | > 100 | 45 | > 100 | > 100
3 | Cc1cccc(C(=O)O)c1CC1NCCC2c3ccccc3NC12 (stereo not given) | > 100 | > 100 | > 100 | > 100 | > 100 | > 100 | > 100 | > 100 | > 100 | > 100
4 | O=c1[nH]c(=O)n2n1C1C=CC2CC1 | > 100 | > 100 | > 100 | > 100 | > 100 | > 100 | > 100 | > 100 | > 100 | > 100
5 | COCn1c(C)c(C)c2c(=O)oc(C)nc21 | > 100 | 45 | > 100 | > 100 | > 100 | > 100 | > 100 | > 100 | > 100 | > 100
6 | CC(=O)OC1[C@H](n2ccnc2)C[C@H]2[C@@H]3CC=C4CC(N5CCCC5)CC[C@]4(C)[C@H]3CC[C@]12C (stereo not given in full) | > 100 | > 100 | > 100 | > 100 | > 100 | > 100 | > 100 | > 100 | > 100 | > 100
7 | Cc1cc(C)c2c(=O)cc(-c3ccc4ccccc4c3)[nH]c2n1 | > 100 | > 100 | 37.7 | 48.1 | > 100 | > 100 | > 100 | 4.26 | > 100 | > 90.7
8 | O=c1c2c3c(sc2nc2n1N=C(c1ccc([N+](=O)[O-])cc1)CS2)CCCC3 | > 100 | > 100 | > 100 | > 100 | > 100 | > 100 | > 100 | > 100 | > 100 | > 100
9 | O=C1Nc2ccccc2/C1=C\c1c(Cl)nc2n1CCS2 | 60.6 | > 100 | > 100 | 38.5 | > 100 | 64.5 | 40.1 | > 100 | > 100 | 56.8
10 | CC1CC(C(=O)OC2OC(COC3OC(CO)C(OC4OC(C)C(O)C(O)C4O)C(O)C3O)C(O)C(O)C2O)C2CCC3(C)C(=CCC4(C)C3CCC3C(C)(CO)C(O)C(O)CC34C)C2C1C (stereo not given) | 51.5 | > 100 | 52.2 | 32.7 | > 100 | > 100 | 35.5 | > 100 | 37 | 32.5
11 | Cc1[nH]c(=O)nc(N(CCO)/N=C/c2ccc(Cl)cc2)c1C(=O)Nc1ccc(Cl)cc1 | > 100 | > 100 | > 100 | > 100 | > 100 | > 100 | > 100 | > 100 | > 100 | > 100
12 | NC(C(=O)OC(=O)c1ccccc1)C(=O)OC(=O)c1ccccc1 | > 100 | > 100 | > 100 | > 100 | > 100 | > 100 | > 100 | > 100 | > 100 | > 100
13 | CC(=O)c1ccccc1NS(=O)(=O)c1ccc2nc(C)n(NS(=O)(=O)c3ccccc3C(C)=O)c(=O)c2c1 | > 100 | > 100 | > 100 | > 100 | > 100 | > 100 | > 100 | > 100 | > 100 | > 100
14 | COc1ccccc1/C=C/c1nc2ccccc2o1 | > 10 | > 10 | > 10 | > 10 | > 10 | > 10 | > 10 | > 10 | > 10 | > 10
15 | CC(=O)OC(=C(C#N)C#N)c1nccnc1C(C)=O | > 20 | > 20 | > 20 | 11.5 | > 20 | > 20 | > 20 | > 20 | > 20 | 18.6
16 | O=C1C=C2CC[C@H]3[C@@H]4CC[C@H](Oc5c6ccccc6nc6ccccc56)[C@H]4CC[C@@H]3[C@H]2CC1 | > 100 | > 100 | 60.1 | > 100 | > 100 | > 100 | > 100 | > 100 | > 100 | 91.8
17 | COc1ccc(N(C(=O)NCCO)c2ccccc2)cc1 | > 100 | > 100 | > 100 | > 100 | > 100 | > 100 | > 100 | > 100 | > 100 | > 100
18 | N#CCCN(CCC#N)c1ccc(C(N=Nc2ccc(Cl)cc2)=Nc2ccc(Cl)cc2)cc1 | 34.7 | 45.2 | 65.3 | 31.9 | 30.3 | 23.7 | 35.2 | > 100 | 33.5 | 45.6
